Assay results published in the supplement of paper PMC5579334.
± gives the standard deviation of the averaged measurements.

Legend:
[1] = system: HSC1 (primary human Schwann cells); assay: drug sensitivity score (DSS, CellTox-Green cytotoxicity, 72 h) (DSS (dimensionless)); higher = more cytotoxic; extreme values may be limits of the assay
In short: (§1)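 MPNST cell lines and primary human Schwann cells were incubated 72 h at 37 °C in 384-well plates holding five 10-fold compound dilutions. CellTox-Green was added before seeding at a final 1:1000 dilution and reported fluorescence from DNA released by disrupted cells. Signals were scaled to vehicle and positive-control wells, and cultures failing plate quality control were dropped. Drug sensitivity score and relative IC50 come from four-parameter logistic fits, with IC50 censored at the top concentration.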

STS26T [2] = assay: as above
In short: as §1

[3] = system: HSC2 (primary human Schwann cells); assay: as above
In short: as §1

S1507-2 [4] = assay: as above
In short: as §1

ST8814 [5] = assay: as above
In short: as §1

[6] = system: HSC1 (primary human Schwann cells); assay: % inhibition of CellTiter-Glo viability at highest tested concentration (72 h), relative to DMSO and benzethonium chloride controls; higher = more inhibition
In short: (§2)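 Viability was scored by CellTiter-Glo ATP luminescence, scaled from vehicle to positive-control wells, with duplicates averaged where present. The cells, MPNST lines and primary human Schwann cells at 750–1000 per well, sat 72 h at 37 °C, 5% CO2, in 384-well plates preprinted with each compound at five concentrations in 10-fold steps. Four-parameter logistic fits were run on the data. These fits give drug sensitivity score and relative IC50 censored at the top concentration, and percent inhibition is reported at the top concentration.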

STS26T [7] = assay: as above
In short: as §2

S462 [8] = assay: as above
In short: as §2

[9] = system: HSC2 (primary human Schwann cells); assay: as above
In short: as §2

S1507-2 [10] = assay: as above
In short: as §2

ST8814 [11] = assay: as above
In short: as §2

[12] = system: HSC1 (primary human Schwann cells); assay: drug sensitivity score (DSS, CellTiter-Glo viability, 72 h) (DSS (dimensionless)); higher = more sensitive; extreme values may be limits of the assay
In short: as §2

STS26T [13] = assay: as above
In short: as §2

S462 [14] = assay: as above
In short: as §2

[15] = system: HSC2 (primary human Schwann cells); assay: as above
In short: as §2

S1507-2 [16] = assay: as above
In short: as §2

ST8814 [17] = assay: as above
In short: as §2

SMILES	drug sensitivity score [1]	drug sensitivity score (STS26T [2])	drug sensitivity score [3]	drug sensitivity score (S1507-2 [4])	drug sensitivity score (ST8814 [5])	% inhibition [6]	% inhibition (STS26T [7])	% inhibition (S462 [8])	% inhibition [9]	% inhibition (S1507-2 [10])	% inhibition (ST8814 [11])	drug sensitivity score [12]	drug sensitivity score (STS26T [13])	drug sensitivity score (S462 [14])	drug sensitivity score [15]	drug sensitivity score (S1507-2 [16])	drug sensitivity score (ST8814 [17])
CCNC(=O)c1noc(-c2cc(C(C)C)c(O)cc2O)c1-c1ccc(CN2CCOCC2)cc1 [NVP-AUY922] (max concentration tested 1000 nM)	19.6	11.4	20.4	20.6 ± 3.5	8.57	98.2%	92.2%	98 ± 1.7%	97.1%	97.933 ± 0.086%	98.2%	21.6	18.3	19.7 ± 3.3	22.6	20.5 ± 1.9	19.4
Cc1ccc([N+](=O)[O-])cc1S(=O)(=O)N(C)/N=C/c1cnc2ccc(Br)cn12 [PIK-75] (max concentration tested 10000 nM)	7.46	14.6	9.74	8.99 ± 6.5	5.5	91.1%	102%	101.9 ± 0.78%	95.4%	97.021 ± 0.018%	89.1%	19.7	22.3	21.2 ± 0.91	21.1	17.9 ± 1.9	17.7
CCCCCCCCCCCCCCCCCCOP(=O)([O-])OC1CC[N+](C)(C)CC1 [Perifosine aq/PBS] (max concentration tested 2500 nM)	0	0.96	0	0	0.404	9.06%	32.7%	9.85 ± 1.6%	7.97%	1.67 ± 4.5%	23.6%	0	1.96	0.0036 ± 0.0051	0	0	1.66
c1cc(CN2CCCNCCNCCCNCC2)ccc1CN1CCCNCCNCCCNCC1 [Plerixafor aq] (max concentration tested 10000 nM)	0	0.908	2.79	5.26 ± 3	0	-10.1%	3.99%	-4.54 ± 3.1%	-6.48%	-14.1 ± 20%	4.25%	0	0	0	0	0	0
COCC1(CO)C(=O)C2CCN1CC2 (stereo not drawn) [Prima-1 Met] (max concentration tested 10000 nM)	0	0	0	7.59 ± 11	0	26.3%	14.6%	19.1 ± 8.4%	32.4%	6.31 ± 9.8%	8.31%	1.87	0.507	1.58 ± 1.1	2.14	2.75 ± 3.9	0
N[C@@H](CSC(c1ccccc1)(c1ccccc1)c1ccccc1)C(=O)O [S-trityl-L-cysteine] (max concentration tested 40000 nM)	0	0	0	0	0	14.8%	13%	8.17 ± 9.1%	-1.33%	3.83 ± 4.3%	7.25%	0.233	0.0666	0.0379 ± 0.054	0	0	0
Cn1nnc2c(C(N)=O)ncn2c1=O [Temozolomide] (max concentration tested 10000 nM)	0	0	0	0	0	8.86%	8.32%	2.61 ± 0.65%	2.06%	9.8 ± 9.4%	11.9%	0	0	0	0	0.17 ± 0.24	0.0241
Oc1ncc(N(CCCl)CCCl)c(O)n1 [Uracil mustard] (max concentration tested 10000 nM)	0	0	0	0	0	5.98%	1.52%	-1.32 ± 0.75%	5.29%	-1.65 ± 8.9%	10.8%	0	0	0	0	0	0
CCCC(CCC)C(=O)O [Valproic acid aq] (max concentration tested 1000000 nM)	0	0	0	0	0.307	68.2%	28.3%	31.3 ± 17%	59%	20.7 ± 3.2%	44.4%	4.34	1.5	2.44 ± 0.31	4.4	1.59 ± 0.097	3.83
